Test results: patent publication US10537531B2, “Casein coated drug-loaded iron oxide nanoparticles” (Emory University, priority 2014, dated 2020)

Test system: Caco-2 cells
Experiment: Uptake by Caco-2 cell monolayer (fluorescence microscopy of DOX)
Assay type: cell-based
Settings: Caco-2 monolayer, 17.2 μm, 10 min incubation
Procedure: To investigate the cellular uptake of the released DOX from CN-DOX-IO by the small intestine in vitro, the monolayer of Caco-2 cells was incubated with CN-DOX-IO at a dosage of 17.2 μm for different lengths of time (10, 30 and 60 min). For comparison, cells incubated with DOX-IO and DOX were examined as controls. The intracellular accumulation of DOX was examined by the fluorescent microscope utilizing the fluorescence of DOX.

## COc1cccc2c1C(=O)c1c(O)c3c(c(O)c1C2=O)C[C@@](O)(C(=O)CO)C[C@@H]3O[C@H]1C[C@H](N)[C@H](O)[C@H](C)O1 [free DOX, doxorubicin]
  intracellular localisation of DOX fluorescence signal: observed in the nucleus
